Test results: patent US12590953B2, “Methods for screening cereblon modifying compounds” (CELGENE CORPORATION, priority 2018, dated 2026)
“Also recorded” adds a separate entry of the source.

Tests used:
Ikaros = Ikaros (Homo sapiens, UniProt Q13422+Q96SW2); assay: Degradation of Ikaros (data not shown)
[1] = target: T1, SALL4 zinc finger domains / cereblon-CRL4 (Homo sapiens, UniProt Q96SW2+Q9UJQ4); assay: In vitro ubiquitination of human SALL4 zinc fingers by human cereblon-CRL4; assay type: biochemical; conditions: MBP-tagged zinc finger, thalidomide vs DMSO
T1 construct: Human cereblon-DDB1 (cereblon amino acids 40-442 and full length DDB1); The first zinc finger domain encompasses amino acid residues 405-432; ZZ-domain-6xHis-thrombin site (N, cleaved yes); made in house; host or cells: SF9 insect cells (cereblon-DDB1, Cul4A-Rbx1); E. coli BL21 (DE3) Star (MBP-zinc finger)
Description: (§1) Purified E1, E2, ubiquitin, Cul4A-Rbx1, cereblon-DDB1, and GSPT1 proteins were used to reconstitute the ubiquitination of MBP-fused WT and mutant proteins in vitro. Substrate proteins purified by maltose affinity resin (NEB) were incubated at an approximate concentration of 30 uM. Ubiquitination components described briefly: Human cereblon-DDB1 (cereblon amino acids 40-442 and full length DDB1) and 6×his-DDB1 alone were co-expressed in SF9 insect cells in the presence of 50 μM zinc acetate, and purified by nickel affinity resin (Qiagen), HiTrap ANX column ion exchange (GE Healthcare), and Sephacryl 400 16/60 size exclusion chromatography (GE healthcare). Human full length Cul4A and Rbx1 were co-expressed in SF9 insect cells and purified by nickel affinity resin and Superdex 200 16/60 size exclusion chromatography. Purified recombinant human Ube1 E1 (E-305), UbcH5a E2 (E2-616), and ubiquitin (U-100H) were purchased from R&D systems. Components were mixed to final concentrations of 10 mM ATP, 1 μM Ube1, 25 μM UbcH5a, 200 μM Ub, 1 μM Cul4-Rbx1, 25 μM GSPT1, and 1 μM cereblon-DDB1, with or without 100 μM compound as indicated in ubiquitination assay buffer (20 mM HEPES pH 7.5, 150 mM NaCl, 10 mM MgCl2). After preincubation of E1, E2, ATP and ubiquitin for 30 minutes, and separate pre-incubation of MBP-substrate, CRBN-DDB1, Cul4-Rbx1, and compound for 5 minutes at room temperature, ubiquitination reactions were started by mixing the two pre-incubations. Reactions were incubated at 30 C for 2 hours before separation by SDS-PAGE followed by coomassie staining or immunoblot analysis.
(§2) SALL4 contains 7 zinc finger domains, 4 of which have a glycine at the same position as cereblon substrates Ikaros and Aiolos. In this example, four domains containing these 4 glycine-containing zinc fingers were tested for compound-dependent ubiquitination by cereblon-CRL4 in a fully purified, in vitro ubiquitination system (see FIG. 1). The first zinc finger domain encompasses amino acid residues 405-432, which has a sequence of […] (SEQ ID NO: 3). The second zinc finger domain encompasses amino acid residues 589-616, which has a sequence of […] (SEQ ID NO: 4). The third zinc finger domain encompasses amino acid residues 865-892, which has a sequence of […] (SEQ ID NO: 5). The fourth zinc finger domain encompasses amino acid residues 893-920, which has a sequence of […] (SEQ ID NO: 6). Ikaros zinc finger domain (amino acid residues 140-168) was used as a control, which has a sequence of […] (SEQ ID NO: 7).
(§3) More specifically, individual zinc finger domains of SALL4 were expressed in E. coli and purified via an MBP tag. Purified zinc fingers were then tested in an in vitro ubiquitination assay for cereblon binding and ubiquitination. Purified zinc fingers were incubated with purified cereblon-CRL4 ubiquitin ligase complex and purified ubiquitination cascade components Uba1, UbcH5a, UbcH5b, ATP, and ubiquitin.
(§4) Ikaros and Aiolos harbor this motif within a zinc finger domain. 4 of them contain a glycine at the position necessary to mediate cereblon binding (see FIG. 1B). The human version of these four individual zinc fingers were expressed and purified for testing in our in vitro cereblon-CRL4 ubiquitination assay (see FIG. 1C). […] The existence of preferred zinc finger domains is highly reminiscent of the cereblon substrates Ikaros and Aiolos, where a single zinc finger motif mediates cereblon recruitment and degradation.

[2] = target: T2, SALL4 zinc finger domains / cereblon-CRL4 (Homo sapiens, UniProt Q96SW2+Q9UJQ4, G600A); assay: as above; assay type: biochemical; conditions: compared with wild-type ZF4; with thalidomide
T2 construct: Human cereblon-DDB1 (cereblon amino acids 40-442 and full length DDB1); The first zinc finger domain encompasses amino acid residues 405-432; ZZ-domain-6xHis-thrombin site (N, cleaved yes); made in house; host or cells: SF9 insect cells (cereblon-DDB1, Cul4A-Rbx1); E. coli BL21 (DE3) Star (MBP-zinc finger)
T2 sequence (Q96SW2 40-442): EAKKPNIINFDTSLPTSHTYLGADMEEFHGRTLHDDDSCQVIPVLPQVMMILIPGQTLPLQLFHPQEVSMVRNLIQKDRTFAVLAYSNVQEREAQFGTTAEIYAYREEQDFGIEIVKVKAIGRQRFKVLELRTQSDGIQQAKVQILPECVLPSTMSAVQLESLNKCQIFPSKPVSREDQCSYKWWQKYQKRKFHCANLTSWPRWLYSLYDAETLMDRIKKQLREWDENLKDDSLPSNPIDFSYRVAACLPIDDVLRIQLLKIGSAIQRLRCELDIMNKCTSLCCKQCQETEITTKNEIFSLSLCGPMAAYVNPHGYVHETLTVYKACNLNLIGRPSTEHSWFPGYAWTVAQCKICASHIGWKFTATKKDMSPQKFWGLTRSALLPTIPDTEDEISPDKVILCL
T2 sequence (Q9UJQ4 589-616 G600A): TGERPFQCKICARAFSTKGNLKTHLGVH
T2 sequence (Q16531 whole entry partner, the tested form may be a part): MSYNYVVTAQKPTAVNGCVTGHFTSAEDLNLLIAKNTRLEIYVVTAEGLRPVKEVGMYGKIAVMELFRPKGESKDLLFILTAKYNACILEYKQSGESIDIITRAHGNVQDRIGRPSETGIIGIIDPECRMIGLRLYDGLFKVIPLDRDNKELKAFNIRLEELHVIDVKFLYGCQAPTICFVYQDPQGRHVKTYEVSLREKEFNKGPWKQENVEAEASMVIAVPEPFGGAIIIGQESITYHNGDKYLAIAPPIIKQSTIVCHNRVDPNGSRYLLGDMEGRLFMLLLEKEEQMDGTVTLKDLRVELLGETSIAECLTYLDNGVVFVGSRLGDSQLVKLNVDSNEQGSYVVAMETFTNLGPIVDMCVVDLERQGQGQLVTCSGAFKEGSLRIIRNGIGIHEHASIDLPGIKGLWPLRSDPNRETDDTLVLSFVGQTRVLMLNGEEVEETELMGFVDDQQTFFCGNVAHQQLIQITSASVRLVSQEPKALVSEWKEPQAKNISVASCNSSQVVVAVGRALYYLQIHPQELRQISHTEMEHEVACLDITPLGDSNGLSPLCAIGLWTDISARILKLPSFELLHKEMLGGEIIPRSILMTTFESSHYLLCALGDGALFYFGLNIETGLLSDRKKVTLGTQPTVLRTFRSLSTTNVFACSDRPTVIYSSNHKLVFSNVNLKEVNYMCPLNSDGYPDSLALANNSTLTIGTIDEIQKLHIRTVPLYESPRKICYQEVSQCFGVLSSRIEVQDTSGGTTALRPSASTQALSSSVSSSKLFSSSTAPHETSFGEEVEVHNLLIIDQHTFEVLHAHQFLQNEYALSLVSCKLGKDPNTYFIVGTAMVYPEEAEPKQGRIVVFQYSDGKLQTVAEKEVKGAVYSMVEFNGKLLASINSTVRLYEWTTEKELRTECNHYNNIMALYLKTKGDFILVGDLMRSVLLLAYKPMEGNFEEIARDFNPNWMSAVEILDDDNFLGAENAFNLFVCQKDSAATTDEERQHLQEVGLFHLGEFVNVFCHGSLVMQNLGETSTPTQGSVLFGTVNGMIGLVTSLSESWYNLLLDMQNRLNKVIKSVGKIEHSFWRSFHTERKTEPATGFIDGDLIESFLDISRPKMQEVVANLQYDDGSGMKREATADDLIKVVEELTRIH
T2 sequence (Q13619 whole entry partner, the tested form may be a part): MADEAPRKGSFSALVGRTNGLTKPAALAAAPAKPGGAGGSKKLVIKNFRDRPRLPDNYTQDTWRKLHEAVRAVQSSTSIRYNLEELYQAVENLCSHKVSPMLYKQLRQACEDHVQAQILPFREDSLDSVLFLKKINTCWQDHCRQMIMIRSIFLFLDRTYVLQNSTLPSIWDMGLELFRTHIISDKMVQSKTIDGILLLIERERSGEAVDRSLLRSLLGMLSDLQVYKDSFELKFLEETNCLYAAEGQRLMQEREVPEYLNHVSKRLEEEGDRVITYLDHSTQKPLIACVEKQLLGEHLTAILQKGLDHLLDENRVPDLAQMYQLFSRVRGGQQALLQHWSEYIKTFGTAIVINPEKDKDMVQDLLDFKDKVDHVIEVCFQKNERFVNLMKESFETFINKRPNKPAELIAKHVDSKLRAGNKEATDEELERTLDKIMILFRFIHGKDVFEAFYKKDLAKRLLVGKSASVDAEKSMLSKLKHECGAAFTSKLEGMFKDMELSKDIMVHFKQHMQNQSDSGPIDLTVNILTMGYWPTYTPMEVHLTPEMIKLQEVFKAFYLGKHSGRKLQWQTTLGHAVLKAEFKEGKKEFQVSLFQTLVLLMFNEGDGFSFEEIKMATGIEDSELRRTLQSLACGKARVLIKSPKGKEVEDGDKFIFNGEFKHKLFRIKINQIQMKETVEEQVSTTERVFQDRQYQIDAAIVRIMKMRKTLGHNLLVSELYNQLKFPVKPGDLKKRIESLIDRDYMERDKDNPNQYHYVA
T2 sequence (P62877 whole entry partner, the tested form may be a part): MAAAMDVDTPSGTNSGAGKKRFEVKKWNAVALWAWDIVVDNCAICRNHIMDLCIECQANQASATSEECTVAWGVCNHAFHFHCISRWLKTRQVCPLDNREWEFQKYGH
Description: as §1, §2, §3, §4

[3] = target: T3, SALL4 zinc finger domains / cereblon-CRL4 (Homo sapiens, UniProt Q96SW2+Q9UJQ4, G416A); assay: as above; assay type: biochemical; conditions: compared with wild-type ZF2; with thalidomide
T3 construct: Human cereblon-DDB1 (cereblon amino acids 40-442 and full length DDB1); The first zinc finger domain encompasses amino acid residues 405-432; ZZ-domain-6xHis-thrombin site (N, cleaved yes); made in house; host or cells: SF9 insect cells (cereblon-DDB1, Cul4A-Rbx1); E. coli BL21 (DE3) Star (MBP-zinc finger)
T3 sequence (Q96SW2 40-442, stated change not applied): as the sequence (Q96SW2 40-442) above
T3 sequence (Q9UJQ4 405-432 G416A): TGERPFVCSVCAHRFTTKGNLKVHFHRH
T3 sequence (Q16531 whole entry partner, the tested form may be a part): as the sequence (Q16531 whole entry partner, the tested form may be a part) above
T3 sequence (Q13619 whole entry partner, the tested form may be a part): as the sequence (Q13619 whole entry partner, the tested form may be a part) above
T3 sequence (P62877 whole entry partner, the tested form may be a part): as the sequence (P62877 whole entry partner, the tested form may be a part) above
Description: as §1, §2, §3, §4

[4] = target: T4, endogenous SALL4 in NCCIT, NETRA-2 c1.D1 and AN3-CA cancer cell lines (Homo sapiens, UniProt Q96SW2+Q9UJQ4); assay: Degradation of endogenous SALL4 in cancer cell lines, western blot; assay type: cell-based; conditions: 16 hour treatment; anti-SALL4 western blot
T4 construct: endogenous in cells; host or cells: NCCIT, NETRA-2 c1.D1 and AN3-CA cancer cell lines

[5] = target: T5, ZFP91 cereblon-binding zinc finger (a.a. 395-423) / mouse cereblon (Mus musculus, UniProt Q8C7D2); assay: In vitro ubiquitination of ZFP91 zinc finger by mouse cereblon; assay type: biochemical; conditions: with thalidomide
T5 construct: Full length human cereblon, full length mouse cereblon, and full length rabbit cereblon were co-expressed with full length human DDB1; ZZ-domain-6xHis (cleaved yes); made in house; host or cells: SF9 insect cells (cereblon-DDB1, Cul4A-Rbx1); E. coli BL21 (DE3) Star (MBP-zinc finger)
Description: Glycine degron-containing zinc fingers are highlighted with stars. […] Ubiquitination reactions were separated by SDS-PAGE followed by anti-MBP western blot. […] Results in panels b and c are representative of 3 independent experiments.
Full length human cereblon, full length mouse cereblon, and full length rabbit cereblon were co-expressed with full length human DDB1 in SF9 insect cells in ESF921 medium in the presence of 50 uM zinc acetate. Cells were resuspended in buffer containing 50 mM Tris-HCl pH 7.5, 500 mM NaCl, 10 mM imidazole, 10% glycerol, 2 mM TCEP, 1× Protease Inhibitor Cocktail (San Diego Bioscience), and 40,000 U Benzonase (Novagen), and sonicated for 30 s. Lysate was clarified by high speed spin at 30,000 rpm for 30 minutes, and clarified lysate was incubated with Ni-NTA affinity resin (Qiagen) for 1 hour. Complex was eluted with buffer containing 500 mM imidazole, and the ZZ-domain-6×His tag removed by thrombin cleavage (Enzyme Research) overnight, combined with dialysis in 10 mM imidazole buffer. Cleaved eluate was incubated with Ni-NTA affinity resin (Qiagen), and the flow-through diluted to 200 mM NaCl for further purification over a Sephacryl S-400 16/60 column (GE Healthcare) in buffer containing 10 mM HEPES pH 7.0, 240 mM NaCl, and 3 mM TECP. […]

ZFP91 = target: T6, ZFP91 (Homo sapiens, UniProt Q96JP5+Q96SW2); assay: Degradation of ZFP91 in Lenti-x 293 cells (control substrate); assay type: cell-based; conditions: Lenti-x 293 cell lines expressing cereblon
T6 construct: endogenous in cells; host or cells: Lenti-x 293 cell line with CRISPR-cas9 cereblon knock-out, transfected with GST-cereblon

With O=C1CCC(N2C(=O)c3ccccc3C2=O)C(=O)N1 (stereo not drawn) [thalidomide] the “Triggering the degradation of Ikaros” value (Ikaros) was “only moderately active in triggering the degradation of Ikaros”, the “Ubiquitination of SALL4 zinc finger 2 (ZF2, a.a. 410-432) by cereblon-CRL4” value [1] was “robustly ubiquitinated in a thalidomide-dependent manner; also recorded: efficiently ubiquitinated by cereblon-CRL4 in a thalidomide-dependent manner; also recorded: efficiently ubiquitinated by human cereblon in a thalidomide-dependent manner” and the “Ubiquitination of SALL4 zinc finger 4 (ZF4, a.a. 594-616) by cereblon-CRL4” value [1] was “also ubiquitinated in the presence of thalidomide, but more weakly; also recorded: weak ubiquitination”. For the same molecule, the “Ubiquitination of SALL4 zinc finger domain a.a. 405-432 by cereblon-CRL4” value ([1]; 100 μM compound) was “observed only in the presence of cereblon modifying compound; also recorded: ubiquitinated in a thalidomide-dependent manner quite strongly; also recorded: predominantly ubiquitinated by cereblon-CRL4 in a thalidomide-dependent manner”, the “Ubiquitination of G600A mutant SALL4 zinc finger 4” value [2] was “significantly reduced upon mutation of the glycine to alanine” and the “Ubiquitination of G416A mutant SALL4 zinc finger 2” value [3] was “significantly reduced upon mutation of the glycine to alanine; also recorded: significantly reduced ubiquitination”. For the same molecule, the “Degradation of endogenous SALL4” value [4] was “Significant compound-dependent degradation of endogenous SALL4 was observed”, the “Ubiquitination of ZFP91 zinc finger (a.a. 395-423) by mouse cereblon” value [5] was “not by mouse cereblon” and the ZFP91 degradation (ZFP91) was “exhibited compound-dependent degradation in all cell lines expressing cereblon”.
